# Reference: ChEMBL document CHEMBL3217615, “Novel 3,5-bis(arylidiene)-4-piperidone based monocarbonyl analogs of curcumin: anticancer activity evaluation and mode of action study” (2014)
# Key:
# Assay type in all cases: functional
# [1] = system: HT-29; experiment: Growth inhibition of human HT-29 cells assessed as cell growth at 10^-8 M after 48 hrs by sulforhodamine B assay; details: HT-29, 48 h
# [2] = system: K562; experiment: Growth inhibition of human K562 cells assessed as cell growth at 10^-7 M after 48 hrs by sulforhodamine B assay; details: K562, 48 h, read-out: Activity
# [3] = Growth inhibition of human NCI-ADR-RES cells after 48 hrs by sulforhodamine B assay
# [4] = system: HOP-62; experiment: Growth inhibition of human HOP62 cells assessed as cell growth at 10^-8 M after 48 hrs by sulforhodamine B assay; details: HOP-62, 48 h
# [5] = system: SN12C; experiment: Growth inhibition of human SN12C cells assessed as cell growth at 10^-7 M after 48 hrs by sulforhodamine B assay; details: read-out: Activity
# [6] = system: A498; experiment: Growth inhibition of human A498 cells assessed as cell growth at 10^-6 M after 48 hrs by sulforhodamine B assay; details: A498, 48 h, read-out: Activity
# [7] = Growth inhibition of human OVCAR4 cells assessed as cell growth at 10^-4 M after 48 hrs by sulforhodamine B assay; details: OVCAR-4, 48 h, read-out: Activity
# [8] = system: COLO 205; experiment: Induction of apoptosis in human COLO205 cells assessed as caspase 3/7 activation at 10 uM by FLICA
# [9] = system: HL-60(TB); experiment: Growth inhibition of human HL-60(TB) cells assessed as cell growth at 10^-4 M after 48 hrs by sulforhodamine B assay; details: HL-60, 48 h, read-out: Activity
# [10] = system: SF-268; experiment: Growth inhibition of human SF268 cells assessed as cell growth at 10^-4 M after 48 hrs by sulforhodamine B assay; details: SF-268, 48 h, read-out: Activity
# [11] = system: HOP-62; experiment: Growth inhibition of human HOP62 cells after 48 hrs by sulforhodamine B assay; details: HOP-62, 48 h
# [12] = system: HCT-116; experiment: Growth inhibition of human HCT116 cells assessed as cell growth at 10^-8 M after 48 hrs by sulforhodamine B assay; details: HCT-116, 48 h
# [13] = Growth inhibition of human BT549 cells assessed as cell growth at 10^-8 M after 48 hrs by sulforhodamine B assay; details: BT-549, 48 h
# [14] = system: NCI-H226; experiment: Growth inhibition of human NCI-H226 cells assessed as cell growth at 10^-7 M after 48 hrs by sulforhodamine B assay; details: NCI-H226, 48 h, read-out: Activity
# [15] = system: DU-145; experiment: Growth inhibition of human DU145 cells assessed as cell growth at 10^-7 M after 48 hrs by sulforhodamine B assay; details: DU-145, 48 h, read-out: Activity
# [16] = system: NCI-H460; experiment: Growth inhibition of human NCI-H460 cells assessed as cell growth at 10^-7 M after 48 hrs by sulforhodamine B assay; details: NCI-H460, 48 h, read-out: Activity
# [17] = system: NCI-H460; experiment: Growth inhibition of human NCI-H460 cells assessed as cell growth at 10^-6 M after 48 hrs by sulforhodamine B assay; details: NCI-H460, 48 h, read-out: Activity
# [18] = system: 786-0; experiment: Growth inhibition of human 786-0 cells assessed as cell growth at 10^-7 M after 48 hrs by sulforhodamine B assay; details: 786-0, 48 h, read-out: Activity
# [19] = Growth inhibition of human OVCAR4 cells assessed as cell growth at 10^-6 M after 48 hrs by sulforhodamine B assay; details: OVCAR-4, 48 h, read-out: Activity
# [20] = system: T47D; experiment: Growth inhibition of human T47D cells assessed as cell growth at 10^-7 M after 48 hrs by sulforhodamine B assay; details: read-out: Activity
# [21] = system: NCI-H460; experiment: Growth inhibition of human NCI-H460 cells assessed as cell growth at 10^-8 M after 48 hrs by sulforhodamine B assay; details: NCI-H460, 48 h
# [22] = system: CAKI-1; experiment: Growth inhibition of human CAKI-1 cells assessed as cell growth at 10^-7 M after 48 hrs by sulforhodamine B assay; details: CAKI-1, 48 h, read-out: Activity
# [23] = system: ACHN; experiment: Growth inhibition of human ACHN cells assessed as cell growth at 10^-8 M after 48 hrs by sulforhodamine B assay
# [24] = system: CAKI-1; experiment: Growth inhibition of human CAKI-1 cells assessed as cell growth at 10^-6 M after 48 hrs by sulforhodamine B assay; details: CAKI-1, 48 h, read-out: Activity
# [25] = Growth inhibition of human HCC2998 cells assessed as cell growth at 10^-7 M after 48 hrs by sulforhodamine B assay; details: HCC 2998, 48 h, read-out: Activity
# [26] = system: A498; experiment: Growth inhibition of human A498 cells assessed as cell growth at 10^-4 M after 48 hrs by sulforhodamine B assay; details: A498, 48 h, read-out: Activity
# [27] = Growth inhibition of human UACC62 cells assessed as cell growth at 10^-4 M after 48 hrs by sulforhodamine B assay; details: UACC-62, 48 h, read-out: Activity
# [28] = Growth inhibition of human UACC257 cells assessed as cell growth at 10^-7 M after 48 hrs by sulforhodamine B assay; details: UACC-257, 48 h, read-out: Activity
# [29] = system: RPMI-8226; experiment: Growth inhibition of human RPMI8226 cells assessed as cell growth at 10^-4 M after 48 hrs by sulforhodamine B assay; details: RPMI-8226, 48 h, read-out: Activity
# [30] = Growth inhibition of human UO31 cells assessed as cell growth at 10^-4 M after 48 hrs by sulforhodamine B assay; details: UO-31, 48 h, read-out: Activity
# [31] = Growth inhibition of human OVCAR3 cells assessed as cell growth at 10^-8 M after 48 hrs by sulforhodamine B assay; details: OVCAR-3, 48 h
# [32] = system: DU-145; experiment: Growth inhibition of human DU145 cells assessed as cell growth at 10^-6 M after 48 hrs by sulforhodamine B assay; details: DU-145, 48 h, read-out: Activity
# [33] = Growth inhibition of human OVCAR8 cells assessed as cell growth at 10^-8 M after 48 hrs by sulforhodamine B assay; details: OVCAR-8, 48 h
# [34] = system: CAKI-1; experiment: Growth inhibition of human CAKI-1 cells assessed as cell growth at 10^-4 M after 48 hrs by sulforhodamine B assay; details: CAKI-1, 48 h, read-out: Activity
# [35] = read-out: LC50 (the source's name)
smiles,measurement,setting,value
Cc1ccc(S(=O)(=O)N2C/C(=C\c3cc(F)cc(F)c3)C(=O)/C(=C/c3cc(F)cc(F)c3)C2)cc1,GI50,[1],229 nM
same,LC50,[1],3160 nM
same,growth at 0.01 µM,[1]; read-out: Activity,105%
same,TGI,[1]; read-out: pTGI (converted),631 nM
same,growth at 0.1 µM,[2],44%
same,GI50,[3],439 nM
same,TGI,[3],10100 nM
same,CC50,[3]; [35],76700 nM
same,GI50,[4],2040 nM
same,LC50 (concentration killing 50% of cells),[4],11700 nM
same,growth at 0.01 µM,[4]; read-out: Activity,98%
same,TGI,[4]; read-out: pTGI (converted),4680 nM
same,growth at 0.1 µM,[5],94%
same,growth at 1 µM,[6],91%
same,growth at 100 µM,[7],-81%
same,Activity,[8],41.5%
same,growth at 100 µM,[9],-23%
same,growth at 100 µM,[10],-88%
same,GI50,[11],2040 nM
same,TGI,[11],4640 nM
same,CC50,[11]; [35],11900 nM
same,GI50,[12],209 nM
same,LC50,[12],1950 nM
same,growth at 0.01 µM,[12]; read-out: Activity,107%
same,TGI,[12]; read-out: pTGI (converted),537 nM
same,GI50,[13],339 nM
same,LC50,[13],3550 nM
same,growth at 0.01 µM,[13]; read-out: Activity,102%
same,TGI,[13]; read-out: pTGI (converted),933 nM
same,growth at 0.1 µM,[14],94%
same,growth at 0.1 µM,[15],111%
same,growth at 0.1 µM,[16],104%
same,growth at 1 µM,[17],45%
same,growth at 0.1 µM,[18],104%
same,growth at 1 µM,[19],26%
same,growth at 0.1 µM,[20],101%
same,GI50,[21],832 nM
same,LC50,[21],9120 nM
same,growth at 0.01 µM,[21]; read-out: Activity,103%
same,TGI,[21]; read-out: pTGI (converted),2880 nM
same,growth at 0.1 µM,[22],94%
same,GI50,[23],245 nM
same,LC50,[23],2400 nM
same,growth at 0.01 µM,[23]; read-out: Activity,101%
same,TGI,[23]; read-out: pTGI (converted),617 nM
same,growth at 1 µM,[24],16%
same,growth at 0.1 µM,[25],105%
same,growth at 100 µM,[26],-86%
same,growth at 100 µM,[27],-98%
same,growth at 0.1 µM,[28],87%
same,growth at 100 µM,[29],-50%
same,growth at 100 µM,[30],-95%
same,GI50,[31],437 nM
same,LC50,[31],4570 nM
same,growth at 0.01 µM,[31]; read-out: Activity,110%
same,TGI,[31]; read-out: pTGI (converted),1450 nM
same,growth at 1 µM,[32],62%
same,GI50,[33],302 nM
same,LC50,[33],16200 nM
same,growth at 0.01 µM,[33]; read-out: Activity,95%
same,TGI,[33]; read-out: pTGI (converted),1780 nM
same,growth at 100 µM,[34],-57%
